From ChEMBL document CHEMBL1151983, “Antiprotealide is a natural product” (J Nat Prod, 2009)
Several values for one entry are separate records, joined by “and”; a condition that tells them apart may be missing. Equal entries are not always repeated.

What was measured:
[1] = Inhibition of trypsin-like activity of rabbit 20S proteasome; design: species or system Oryctolagus cuniculus
[2] = Inhibition of chymotrypsin-like activity of rabbit 20S proteasome; design: species or system Oryctolagus cuniculus
RPMI-8226 = experiment: Cytotoxicity against human RPMI8226 cells after 48 hrs by resazurin assay; assay type: functional, cell-based
[3] = Inhibition of caspase-like activity of rabbit 20S proteasome; design: species or system Oryctolagus cuniculus

Compound | IC50 [1] | IC50 [2] | IC50 (RPMI-8226; Homo sapiens, RPMI-8226, 48 h) [nM] | IC50 [3] [nM] | IC50 (RPMI-8226; rpmi-8226) [nM]
C[C@@]12OC(=O)[C@]1([C@@H](O)[C@@H]1C=CCCC1)NC(=O)[C@@H]2CCCl [MARIZOMIB] | 34 nM | 4 nM | 11 | 364 | –
CC(C)[C@H](O)[C@@]12NC(=O)[C@H](CCCl)[C@]1(C)OC2=O [ANTIPROTEALIDE] | 211 nM and 262 nM | 27 nM and 31 nM | 220 | > 20000 | 283
